Measured values as given in patent US20240342201A1, “ASYMMETRIC GPR84 ANTAGONIST AND USE THEREOF” (priority 2021, published 2024).
Read-outs that look alike come from different tables or passages of the source.

Biological target: GPR84 (Homo sapiens, UniProt Q9NQS5)
Assay: GPR84 antagonistic activity, calcium flux (Fluo-4) assay with agonist 6-OAU
Format: cell-based
Set-up: expressed in transfected cells; host or cells: HEK293
Experimental: The human GPR84 cell line was obtained by transfecting a HEK293 cell line with a plasmid encoding GPR84 and Gα16 proteins. Fluorescent dye Fluo-4AM was purchased from Invitrogen.
Intracellular Ca^2+ ion is a very important second messenger of G protein-coupled receptor signaling pathway. […] Fluo-4 is a Ca^2+ ion-specific fluorescent probe that binds quantitatively to Ca^2+ ions and emits fluorescence.
Detection of receptor inhibitory effect by GPR84 antagonist: After incubated with fluorescent dye Fluo-4, GPR84 cells were incubated with different concentrations of antagonistic compounds for a period of time to occupy the binding site of agonist to GPR84 (antagonistic binding site). A certain concentration of agonist (6-n-octylaminouracil, 6-OAU) was added to compete with the antagonist compound for binding sites. […] The half-inhibitory concentration (IC50) of the compound was calculated by using GraphPad PRISM software.
The above ingredients were weighed and dissolved in ultrapure water. pH was adjusted to 7.4 by using hydrochloric acid or NaOH solution. The mixture was filtered and stored at 4° C. for one month.
The buffer was prepared on site.
The cells were seeded in a 96-well plate at a density of 4×10^4 cells/well. After 24 hours of culture, the culture medium was removed, and 40 μL of Fluo-4AM fluorescent staining solution was added to each well and incubated in a 37° C. incubator for 40 minutes. After the dye was aspirated and discarded, 50 μL of the tested compound was added and incubated at room temperature for 10 minutes.

[1] = IC50, HEK293 cells with GPR84 and Gα16, Fluo-4 calcium signal, agonist 6-OAU around EC80

Chain of GPR84 (Q9NQS5 whole entry): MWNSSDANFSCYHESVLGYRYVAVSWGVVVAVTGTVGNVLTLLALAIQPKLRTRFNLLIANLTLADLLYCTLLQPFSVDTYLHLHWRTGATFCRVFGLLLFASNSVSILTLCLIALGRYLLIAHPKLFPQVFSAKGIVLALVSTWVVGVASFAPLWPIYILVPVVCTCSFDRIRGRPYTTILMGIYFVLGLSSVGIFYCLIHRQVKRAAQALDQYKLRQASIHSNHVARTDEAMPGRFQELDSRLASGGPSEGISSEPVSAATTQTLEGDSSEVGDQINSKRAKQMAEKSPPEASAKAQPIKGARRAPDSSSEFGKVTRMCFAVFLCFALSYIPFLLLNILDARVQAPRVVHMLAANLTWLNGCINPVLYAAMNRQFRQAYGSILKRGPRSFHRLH

COc1cccc2c1Sc1ccccc1C=C2OP(=O)(O)OCCCCCCCCBr [LSX527]
IC50 [1]: 0.1 to 1 µM

CC1(C)[C@@H]2CC[C@@](C)(C2)[C@@H]1OP(=O)(O)OC1=Cc2ccccc2Sc2c(OC(F)(F)F)cccc21 [LSX526j]
IC50 [1]: < 0.1 µM

COc1cccc2c1Sc1ccccc1C=C2OP(=O)(O)N1CCC(C)(C)CC1 [LSX431]
IC50 (HEK293 cells with GPR84 and Gα16, Fluo-4 calcium signal, agonist 6-OAU around EC80, read-out: IC50): 1 to 10 µM

COc1cccc2c1Sc1ccccc1C=C2OP(=O)(O)Oc1cc(C(C)C)ccc1C [LSX468b]
IC50: 0.1 to 1 µM

COc1cccc2c1Sc1ccccc1C=C2OP(=O)(O)OCCCNC(=O)CC[C@@H](C)[C@H]1CC[C@H]2[C@@H]3[C@H](O)C[C@@H]4C[C@H](O)CC[C@]4(C)[C@H]3C[C@H](O)[C@]12C [LSX784]
IC50 [1]: 1 to 10 µM

CC1(C)[C@H]2CC[C@]1(C)[C@@H](OP(=O)(O)OC1=Cc3c(Cl)cccc3Sc3ccccc31)C2 [LSX476h]
IC50 [1]: 0.1 to 1 µM

COc1cccc2c1Sc1ccccc1C=C2OP(=O)(O)OC1CCC(C)CC1 (stereo not shown) [LSX432-2c]
IC50 [1]: 1 to 10 µM

COc1cccc2c1Sc1ccccc1C=C2OP(=O)(O)OC1CCOC1 (stereo not shown) [LSX406]
IC50: 1 to 10 µM

CC1(C)[C@@H]2CC[C@@](C)(C2)[C@@H]1OP(=O)(O)OC1=Cc2ccccc2Oc2ccccc21 [LSX426j]
IC50 [1]: 1 to 10 µM

CC1CC(C(C)(C)C)C(OP(=O)(O)OC2=Cc3c(Cl)cccc3Sc3ccccc32)C(C(C)(C)C)C1 (stereo not shown) [LSX548]
IC50 [1]: 1 to 10 µM

COc1cccc2c1Sc1ccccc1C=C2OP(=O)(O)Oc1cc(Cl)ccc1Cl [LSX480]
IC50: 0.1 to 1 µM

CC1(C)[C@H]2CC[C@]1(C)[C@H](OP(=O)(O)OC1=Cc3c(Cl)cccc3Sc3ccccc31)C2 (racemic) [LSX476d]
IC50 [1]: 0.1 to 1 µM

CC1(C)[C@H]2CC[C@]1(C)[C@H](OP(=O)(O)OC1=Cc3ccccc3Sc3c(OC(F)(F)F)cccc31)C2 [LSX526a]
IC50 [1]: 0.1 to 1 µM

COc1cccc2c1Sc1ccccc1C=C2OP(=O)(O)OCC1CC2CCC1C2 (stereo not shown) [LSX444-2]
IC50 [1]: 0.1 to 1 µM

CC1(C)[C@H]2CC[C@]1(C)[C@H](OP(=O)(O)OC1=Cc3ccccc3Sc3ccccc31)C2 [LSX442a]
IC50 [1]: 0.1 to 1 µM

COc1cccc2c1Sc1ccccc1C=C2OP(=O)(O)O[C@H]1C[C@@H](C)CC[C@@H]1C(C)C [LSX474b]
IC50 [1]: < 0.1 µM

COc1cccc2c1Sc1ccccc1C=C2OP(=O)(O)Oc1ccc(Oc2ccccc2)cc1 [LSX504]
IC50: 1 to 10 µM

COc1cccc2c1Sc1ccccc1C=C2OP(=O)(O)O[C@@H]1CC[C@@]2(C)C(CC[C@H]3[C@@H]4CC[C@H]([C@H](C)CCC(=O)O)[C@@]4(C)CC[C@@H]32)C1 (stereo partly shown) [LSX694]
IC50 [1]: 0.1 to 1 µM

COc1cccc2c1Sc1ccccc1C=C2OP(=O)(O)Oc1ccc2ccccc2c1 [LSX462b]
IC50: 0.1 to 1 µM

COc1cccc2c1Sc1ccccc1C=C2OP(=O)(O)OC1COC(C)(C)C1 (stereo not shown) [LSX434-2]
IC50 (read-out: IC50): 1 to 10 µM

CC1(C)[C@@H]2CC[C@@](C)(C2)[C@@H]1OP(=O)(O)OC1=Cc2ccccc2Sc2ccccc21 [LSX442j]
IC50 [1]: 1 to 10 µM

COc1cccc2c1Sc1ccccc1C=C2OP(=O)(O)Oc1ccc(Br)cc1 [LSX491a]
IC50: 0.1 to 1 µM

CCCCCc1cccc(OP(=O)(O)OC2=Cc3ccccc3Sc3c(OC)cccc32)c1 [LSX482b]
IC50: < 0.1 µM

COc1cccc2c1Sc1ccccc1C=C2OP(=O)(O)Oc1ccc(F)cc1 [LSX430]
IC50: 1 to 10 µM

CC1(C)[C@H]2CC[C@]1(C)[C@H](OP(=O)(O)OC1=Cc3c(Cl)cccc3Sc3ccccc31)C2 [LSX476a]
IC50 [1]: < 0.1 µM

COC(=O)CCCCCCCOP(=O)(O)OC1=Cc2ccccc2Sc2c(OC)cccc21 [LSX492]
IC50 [1]: 1 to 10 µM

COc1cccc2c1Sc1ccccc1C=C2OP(=O)(O)OC12CC3CC(C1)C(Nc1ncnc4[nH]ccc14)C(C3)C2 (stereo not shown) [LSX602]
IC50 [1]: < 0.1 µM

COc1cccc2c1Sc1ccccc1C=C2OP(=O)(O)OCCCCCCCCF [LSX466]
IC50 [1]: 1 to 10 µM

CCCCCCOP(=O)(O)OC1=Cc2ccccc2Sc2c(OC)cccc21 [LSX420-3]
IC50 [1]: 0.1 to 1 µM

COc1cccc2c1Sc1ccccc1C=C2OP(=O)(O)OC1C(C)(C)CCCC1(C)C [LSX474-3]
IC50 [1]: 0.1 to 1 µM

COc1cccc2c1Sc1ccccc1C=C2OP(=O)(O)O[C@@H]1CC[C@@]2(C)C(C1)C[C@@H](O)[C@H]1[C@@H]3CC[C@H]([C@H](C)CCC(=O)O)[C@@]3(C)CC[C@@H]12 (stereo partly shown) [LSX710]
IC50 [1]: 0.1 to 1 µM

COc1cccc2c1Sc1ccccc1C=C2OP(=O)(O)Oc1cc(C)ccc1C(C)C [LSX468a]
IC50: 0.1 to 1 µM

COc1cccc2c1Sc1ccccc1C=C2OP(=O)(O)O[C@@H]1CC[C@@]2(C)[C@@H](C1)C[C@@H](O)[C@@H]1[C@@H]2C[C@H](O)[C@]2(C)[C@@H]([C@H](C)CCC(=O)O)CC[C@@H]12 [LSX726]
IC50 [1]: 1 to 10 µM

COc1cccc2c1Sc1ccccc1C=C2OP(=O)(O)OC12CC3CC(C)(CC(C)(C3)C1)C2 [LSX498]
IC50 [1]: 0.1 to 1 µM

COc1cccc2c1Sc1ccccc1C=C2OP(=O)(O)OC1CCCCC1C (stereo not shown) [LSX432-2a]
IC50 [1]: 1 to 10 µM

COc1cccc2c1Sc1ccccc1C=C2OP(=O)(O)Oc1c(C(C)C)cccc1C(C)C [LSX496]
IC50: 1 to 10 µM

COc1cccc2c1Sc1ccccc1C=C2OP(=O)(O)Oc1cccc2ccccc12 [LSX462a]
IC50: 0.1 to 1 µM

CCCCCCCCOP(=O)(O)OC1=Cc2c(Cl)cccc2Sc2ccccc21 [LSX452]
IC50 [1]: 0.1 to 1 µM

COc1cccc2c1Sc1ccccc1C=C2OP(=O)(O)OC1C2CC3CC(C2)CC1C3 (stereo not shown) [LSX470b]
IC50 [1]: 0.1 to 1 µM

COc1cccc2c1Sc1ccccc1C=C2OP(=O)(O)OC12CC3CC(CC(C3)C1)C2 [LSX470a]
IC50 [1]: 0.1 to 1 µM

COc1cccc2c1Oc1ccccc1C=C2OP(=O)(O)O[C@@H]1C(C)(C)[C@@H]2CC[C@@]1(C)C2 [LSX456j]
IC50 [1]: 1 to 10 µM

COc1ccc(OP(=O)(O)OC2=Cc3ccccc3Sc3c(OC)cccc32)cc1 [LSX442]
IC50: 0.1 to 1 µM

COc1cccc2c1Sc1ccccc1C=C2OP(=O)(O)Oc1ccccc1C(C)C [LSX454]
IC50: 1 to 10 µM

CCCCCc1ccc(OP(=O)(O)OC2=Cc3ccccc3Sc3c(OC)cccc32)cc1 [LSX482c]
IC50: 0.1 to 1 µM

CCCCCCCCCOP(=O)(O)OC1=Cc2ccccc2Sc2c(OC)cccc21 [LSX462-3]
IC50 [1]: 0.1 to 1 µM

COc1cccc2c1Sc1ccccc1C=C2OP(=O)(O)OC [LSX350]
IC50 [1]: 1 to 10 µM

COc1cccc2c1Sc1ccccc1C=C2OP(=O)(O)OCCc1ccccc1 [LSX440]
IC50 [1]: 1 to 10 µM

CC1(C)[C@H]2CC[C@]1(C)[C@H](OP(=O)(O)OC1=Cc3c(F)cccc3Sc3ccccc31)C2 [LSX460a]
IC50 [1]: 0.1 to 1 µM

COc1cccc2c1Sc1ccccc1C=C2OP(=O)(O)Oc1ccc([N+](=O)[O-])cc1 [LSX457]
IC50: 1 to 10 µM

COc1cccc2c1Sc1ccccc1C=C2OP(=O)(O)O[C@@H]1C[C@H](C)CC[C@H]1C(C)C [LSX474a]
IC50 [1]: < 0.1 µM

CCCCCc1ccccc1OP(=O)(O)OC1=Cc2ccccc2Sc2c(OC)cccc21 [LSX482a]
IC50: 0.1 to 1 µM

CC1(C)[C@@H]2CC[C@@]1(C)[C@H](OP(=O)(O)OC1=Cc3c(Cl)cccc3Sc3ccccc31)C2 (racemic) [LSX476b]
IC50 [1]: < 0.1 µM

CC1(C)[C@@H]2CC[C@@]1(C)[C@@H](OP(=O)(O)OC1=Cc3c(Cl)cccc3Sc3ccccc31)C2 [LSX476c]
IC50 [1]: 0.1 to 1 µM

COc1cccc2c1Sc1ccccc1C=C2OP(=O)(O)OC1CCC(C(C)(C)C)CC1 (stereo not shown) [LSX474-2]
IC50 [1]: 0.1 to 1 µM

CC1(C)[C@@H]2CC[C@@]1(C)[C@H](OP(=O)(O)OC1=Cc3c(Cl)cccc3Sc3ccccc31)C2 [LSX476g]
IC50 (HEK293 cells with GPR84 and Gα16, Fluo-4 calcium signal, agonist 6-OAU around EC80): < 0.1 µM

CCCCCCCCP(=O)(O)OC1=Cc2ccccc2Sc2c(OC)cccc21 [LSX432]
IC50: 0.1 to 1 µM

COc1cccc2c1Sc1ccccc1C=C2OP(=O)(O)OC1C(C)CCCC1C (stereo not shown) [LSX446-2]
IC50 [1]: 1 to 10 µM

CC1(C)[C@@H]2CC[C@@](C)(C2)[C@@H]1OP(=O)(O)OC1=Cc2c(F)cccc2Sc2ccccc21 [LSX460j]
IC50 [1]: 0.1 to 1 µM

CCCCCc1cc(CCCCC)cc(OP(=O)(O)OC2=Cc3ccccc3Sc3c(OC)cccc32)c1 [LSX552]
IC50: 0.1 to 1 µM

COc1cccc2c1Sc1ccccc1C=C2OP(=O)(O)OC12CC3CC(C1)C(Nc1c(C(N)=O)cnc4[nH]ccc14)C(C3)C2 (stereo not shown) [LSX644]
IC50 [1]: 1 to 10 µM

CC/C=C\CCCCOP(=O)(O)OC1=Cc2ccccc2Sc2c(OC)cccc21 [LSX446]
IC50 [1]: 0.1 to 1 µM
